For one data set, the target named is T1, Mouse 5-HT2BR (Mus musculus, UniProt Q02152).
T1 construct: host or cells: CHO-K1
Kind of data set: Calcium influx functionality assay (FLIPR) in CHO-K1 cells expressing mouse 5-HT2BR. The data set is classed as cell-based. As to conditions: agonist 5 nM α-methylserotonin. As to the method: The binding profile of AM1476 was evaluated for binding to human 5‐HT2AR, 5‐HT2BR, and 5‐HT2CR in radioligand binding assays using Chinese hamster ovary (CHO‐K1) cells overexpressing human receptors (in vitro assays 271650, 271700, and 271800; Eurofins Panlabs Discovery). AM1476 was evaluated at 0.1, 1, 10, 100, 1,000, and 10,000 nM (5‐HT2BR) or at 1, 10, 100, 1,000, and 10,000 nM (5‐HT2AR and 5‐HT2CR). Human 5‐HT2AR and 5‐HT2BR functionality was measured with homogeneous time‐resolved fluorescence quantification of IP1 accumulation in CHO‐K1 cells (in vitro assays 355250 and 355260). Compounds creating a ≥50% inhibition of 5‐HT (5 nM) induced fluorescence response specified receptor antagonist activity. 5‐HT2CR functionality was assessed with [35S] GTPγS for quantification of bound GTPγS. Compounds creating a ≥50% inhibition of 5‐HT (100 nM) induced [35S] GTPγS binding response specified receptor antagonist activity (in vitro assay 355200). AM1476 was evaluated at 0.1, 0.3, 1, 3, 10, 30, and 300 nM (5‐HT2BR) or 1, 10, 100, 1,000, and 10,000 nM (5‐HT2AR and 5‐HT2CR). […] Mouse 5‐HT2BR functionality was measured in a calcium influx assay (Charles River) in CHO‐KI cells expressing the mouse 5‐HT2BR using a calcium sensitive dye and a fluorescence imaging plate reader (FLIPRTETRA) instrument. AM1476 was evaluated at 0.3, 1, 3, 10, 30, 100, 300, and 1,000 nM. […]

The target in a further data set is T2, Uptake, Dopamine (hu) (Homo sapiens, UniProt Q01959).
T2 construct: Eurofins Panlabs 316010
Kind of data set: Functionality assay, Uptake, Eurofins Panlabs 316010. The data set is classed as cell-based. The source says: Effects were considered significant if AM1476's mean value was three or more SDs above the vehicle control mean in the agonist assay or three or more SDs below the positive control agonist (5‐nM α‐methylserotonin) mean in the antagonist assay. AM1476 was screened for selectivity against approximately 200 targets using a Eurofins Panlabs Spectrum screen panel including enzymatic and receptor binding assays.

The next data set concerns Tsk-1 mice. Kind of data set: Tsk-1 mouse model of skin fibrosis. Type of data set: in vivo. As to the method: AM1476 was dissolved in sterile distilled water for the ex vivo and in vivo experiments. A concentration of 30 μM was applied for the ex vivo experiment. For the in vivo experiments, 1, 3, or 10 mg/kg was administered orally once or twice daily.
In the murine Tsk‐1 model of SSc, a dominant mutation in the fibrillin 1 gene leads to an SSc‐like disease, with minor inflammatory infiltrates, autoantibody production, and fibrosis of the skin. This model reflects the later stages of SSc characterized by noninflammatory self‐sustaining fibrosis. Eight to 12 mice per group were analyzed. Treatment was initiated at an age of five weeks, and the outcome was analyzed at an age of 10 weeks.[11]
Skin samples were fixed in 4% formalin for six hours and embedded in paraffin. Five‐micrometer sections were cut and stained with hematoxylin and eosin (H&E). The dermal thickness was quantified on H&E‐stained sections using images captured with a light microscope (Nikon eclipse 80i) at 100‐fold magnification by manually measuring the distance between the epidermal‐dermal junction and the dermal‐subcutaneous fat junction at four sites per mouse.[15], [16] For lung samples, the whole left lung was fixed in 4% formalin for six hours and embedded in paraffin. Five‐micrometer sections were cut and stained with trichrome and sirius red. Histologic readouts were evaluation of the fibrotic area as the percentage of the total lung area in sirius red–stained sections (two sections per mouse) and quantification of pulmonary changes using the Ashcroft score (four sections per mouse).[17], [18]
The amount of collagen protein in skin and lung samples was determined by hydroxyproline assay.[19], [20] After digestion in 6 M HCl for three hours at 120°C, the pH of the samples was adjusted to a pH range of 6–7 with 6 M NaOH. Afterward, 0.06 M chloramine T was added to each sample and incubated for 20 minutes at room temperature. Next, 3.15 M perchloric acid and 20% p‐dimethylaminobenzaldehyde were added, and samples were incubated for an additional 20 minutes at 60°C. The absorbance was determined at 557 nm with a Spectra MAX 190 microplate spectrophotometer. Absolute values were determined using a standard curved generated with type I collagen (Sigma‐Aldrich).
Myofibroblasts are characterized by the expression of α‐smooth muscle actin (α‐SMA). Fibroblasts positive for α‐SMA were detected by immunohistochemistry staining with monoclonal anti–α‐SMA antibodies (clone 1A4, Sigma‐Aldrich). The expression was visualized with horseradish peroxidase–labeled secondary antibodies and 3,3‐diaminobenzidine tetra hydrochloride (Sigma‐Aldrich). Monoclonal mouse IgG antibodies (Calbiochem) were used as controls. Images of sections stained for α‐SMA were captured on a light microscope (Nikon eclipse 80i). The myofibroblast number was manually evaluated at four different areas at 200‐fold magnification. Myofibroblasts were defined as α‐SMA positive, single, and spindle‐shaped cells in the dermis.[5], [21]

Data set [1] concerns the target T3, 5-HT2CR (Homo sapiens, UniProt P28335).
T3 construct: 355200 (GTPγS); host or cells: CHO-K1
Kind of data set: Functionality assay, [35S]GTPγS binding. The data set is classed as biochemical. To be noted: inhibition of 5-HT (100 nM) induced [35S]GTPγS binding; read-out: IC50, antagonistic activity, human 5-HT2C. On the procedure: The binding profile of AM1476 was evaluated for binding to human 5‐HT2AR, 5‐HT2BR, and 5‐HT2CR in radioligand binding assays using Chinese hamster ovary (CHO‐K1) cells overexpressing human receptors (in vitro assays 271650, 271700, and 271800; Eurofins Panlabs Discovery). AM1476 was evaluated at 0.1, 1, 10, 100, 1,000, and 10,000 nM (5‐HT2BR) or at 1, 10, 100, 1,000, and 10,000 nM (5‐HT2AR and 5‐HT2CR). Human 5‐HT2AR and 5‐HT2BR functionality was measured with homogeneous time‐resolved fluorescence quantification of IP1 accumulation in CHO‐K1 cells (in vitro assays 355250 and 355260). Compounds creating a ≥50% inhibition of 5‐HT (5 nM) induced fluorescence response specified receptor antagonist activity. 5‐HT2CR functionality was assessed with [35S] GTPγS for quantification of bound GTPγS. Compounds creating a ≥50% inhibition of 5‐HT (100 nM) induced [35S] GTPγS binding response specified receptor antagonist activity (in vitro assay 355200). AM1476 was evaluated at 0.1, 0.3, 1, 3, 10, 30, and 300 nM (5‐HT2BR) or 1, 10, 100, 1,000, and 10,000 nM (5‐HT2AR and 5‐HT2CR). […] Mouse 5‐HT2BR functionality was measured in a calcium influx assay (Charles River) in CHO‐KI cells expressing the mouse 5‐HT2BR using a calcium sensitive dye and a fluorescence imaging plate reader (FLIPRTETRA) instrument. AM1476 was evaluated at 0.3, 1, 3, 10, 30, 100, 300, and 1,000 nM.

In the next data set the target is T4, human 5-HT2AR (Homo sapiens, UniProt P28223).
T4 construct: 355250 (IP1); host or cells: CHO-K1
Kind of data set: Radioligand binding assay, CHO-K1 cells overexpressing human receptor (Eurofins Panlabs). To be noted: read-out: inhibition constant (Ki), 5-HT2AR. On the procedure: (§1) The binding profile of AM1476 was evaluated for binding to human 5‐HT2AR, 5‐HT2BR, and 5‐HT2CR in radioligand binding assays using Chinese hamster ovary (CHO‐K1) cells overexpressing human receptors (in vitro assays 271650, 271700, and 271800; Eurofins Panlabs Discovery). AM1476 was evaluated at 0.1, 1, 10, 100, 1,000, and 10,000 nM (5‐HT2BR) or at 1, 10, 100, 1,000, and 10,000 nM (5‐HT2AR and 5‐HT2CR). Human 5‐HT2AR and 5‐HT2BR functionality was measured with homogeneous time‐resolved fluorescence quantification of IP1 accumulation in CHO‐K1 cells (in vitro assays 355250 and 355260). Compounds creating a ≥50% inhibition of 5‐HT (5 nM) induced fluorescence response specified receptor antagonist activity. 5‐HT2CR functionality was assessed with [35S] GTPγS for quantification of bound GTPγS. Compounds creating a ≥50% inhibition of 5‐HT (100 nM) induced [35S] GTPγS binding response specified receptor antagonist activity (in vitro assay 355200). AM1476 was evaluated at 0.1, 0.3, 1, 3, 10, 30, and 300 nM (5‐HT2BR) or 1, 10, 100, 1,000, and 10,000 nM (5‐HT2AR and 5‐HT2CR). A nonlinear least squares regression analysis was used to determine half‐maximal inhibitory concentration (IC50) values. Mouse 5‐HT2BR functionality was measured in a calcium influx assay (Charles River) in CHO‐KI cells expressing the mouse 5‐HT2BR using a calcium sensitive dye and a fluorescence imaging plate reader (FLIPRTETRA) instrument. AM1476 was evaluated at 0.3, 1, 3, 10, 30, 100, 300, and 1,000 nM.

In data set [2] the target is T5, human 5-HT2BR (Homo sapiens, UniProt P41595).
T5 construct: 355260 (IP1); host or cells: CHO-K1
The data set is described as above. As to conditions: read-out: inhibition constant (Ki), human 5-HT2BR. As to the method: as §1

Data set [3] concerns the target T3, 5-HT2CR. The data set is described as above. As to conditions: read-out: inhibition constant (Ki), 5-HT2CR. On the procedure:
as §1

Data set [4] has as its target T5, human 5-HT2BR. Kind of data set: Functionality assay, HTRF quantification of IP1 accumulation in CHO-K1 cells. The data set is classed as cell-based. (In TR-FRET formats the signal depends on donor and acceptor labels being close together.)
Data set [5] can be described thus: Pharmacokinetic profile (no method given).
Where [6] appears, read: all three doses, vs vehicle-treated 10-week-old Tsk-1 mice.

Entries after “also recorded” stand apart in the source; their conditions may differ.

In general, IC50 refers to the point on the concentration scale where inhibition reaches its midpoint. As usually defined, the Ki is a measure of affinity in units of concentration, obtained from inhibition or displacement.

T5 sequence (P41595 whole entry): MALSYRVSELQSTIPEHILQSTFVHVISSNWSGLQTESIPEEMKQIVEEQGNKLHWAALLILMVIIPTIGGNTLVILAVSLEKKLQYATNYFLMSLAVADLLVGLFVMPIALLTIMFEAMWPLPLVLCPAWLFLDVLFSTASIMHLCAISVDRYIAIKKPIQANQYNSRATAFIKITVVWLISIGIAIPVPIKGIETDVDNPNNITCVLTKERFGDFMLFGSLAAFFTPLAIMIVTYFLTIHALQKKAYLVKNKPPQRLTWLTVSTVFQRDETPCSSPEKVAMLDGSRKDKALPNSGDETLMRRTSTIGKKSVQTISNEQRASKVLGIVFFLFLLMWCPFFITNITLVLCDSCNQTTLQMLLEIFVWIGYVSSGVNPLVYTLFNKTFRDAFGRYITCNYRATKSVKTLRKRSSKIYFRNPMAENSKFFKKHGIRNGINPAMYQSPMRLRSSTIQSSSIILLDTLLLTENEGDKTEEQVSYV
T3 sequence (P28335 33-458): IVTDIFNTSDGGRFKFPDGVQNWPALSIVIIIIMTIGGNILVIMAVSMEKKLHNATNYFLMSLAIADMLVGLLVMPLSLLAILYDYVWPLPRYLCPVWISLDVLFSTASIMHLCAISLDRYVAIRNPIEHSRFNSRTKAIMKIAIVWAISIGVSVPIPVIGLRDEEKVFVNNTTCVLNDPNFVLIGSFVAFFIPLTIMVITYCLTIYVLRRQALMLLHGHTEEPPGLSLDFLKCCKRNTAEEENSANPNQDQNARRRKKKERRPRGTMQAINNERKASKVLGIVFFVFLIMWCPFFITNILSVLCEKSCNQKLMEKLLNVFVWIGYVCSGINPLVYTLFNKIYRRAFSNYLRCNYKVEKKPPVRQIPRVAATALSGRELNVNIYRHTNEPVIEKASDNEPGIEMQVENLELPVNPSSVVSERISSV
T4 sequence (P28223 whole entry): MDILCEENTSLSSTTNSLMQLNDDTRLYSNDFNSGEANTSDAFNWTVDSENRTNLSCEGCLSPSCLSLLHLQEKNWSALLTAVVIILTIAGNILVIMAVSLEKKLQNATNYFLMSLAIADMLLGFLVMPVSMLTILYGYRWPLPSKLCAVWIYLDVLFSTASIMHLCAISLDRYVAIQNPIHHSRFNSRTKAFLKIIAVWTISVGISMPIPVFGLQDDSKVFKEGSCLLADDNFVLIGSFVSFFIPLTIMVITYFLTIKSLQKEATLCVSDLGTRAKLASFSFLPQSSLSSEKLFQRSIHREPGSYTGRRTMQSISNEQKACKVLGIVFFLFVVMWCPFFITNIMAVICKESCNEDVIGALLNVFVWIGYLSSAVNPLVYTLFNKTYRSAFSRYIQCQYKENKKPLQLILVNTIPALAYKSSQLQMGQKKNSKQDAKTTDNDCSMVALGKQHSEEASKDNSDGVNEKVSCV
T1 sequence (Q02152 whole entry): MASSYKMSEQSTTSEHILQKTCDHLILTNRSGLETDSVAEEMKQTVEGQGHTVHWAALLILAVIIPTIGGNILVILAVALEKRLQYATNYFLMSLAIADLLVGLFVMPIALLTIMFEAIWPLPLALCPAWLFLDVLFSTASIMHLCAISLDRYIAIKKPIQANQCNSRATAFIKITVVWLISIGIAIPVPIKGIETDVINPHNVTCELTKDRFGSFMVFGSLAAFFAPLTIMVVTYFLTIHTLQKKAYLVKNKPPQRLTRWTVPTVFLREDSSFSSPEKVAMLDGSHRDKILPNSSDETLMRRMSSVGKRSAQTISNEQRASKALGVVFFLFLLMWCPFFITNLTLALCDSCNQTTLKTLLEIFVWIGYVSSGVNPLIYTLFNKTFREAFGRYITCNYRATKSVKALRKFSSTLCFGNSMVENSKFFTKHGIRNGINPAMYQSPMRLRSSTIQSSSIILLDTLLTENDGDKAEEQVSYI
T2 sequence (Q01959 whole entry): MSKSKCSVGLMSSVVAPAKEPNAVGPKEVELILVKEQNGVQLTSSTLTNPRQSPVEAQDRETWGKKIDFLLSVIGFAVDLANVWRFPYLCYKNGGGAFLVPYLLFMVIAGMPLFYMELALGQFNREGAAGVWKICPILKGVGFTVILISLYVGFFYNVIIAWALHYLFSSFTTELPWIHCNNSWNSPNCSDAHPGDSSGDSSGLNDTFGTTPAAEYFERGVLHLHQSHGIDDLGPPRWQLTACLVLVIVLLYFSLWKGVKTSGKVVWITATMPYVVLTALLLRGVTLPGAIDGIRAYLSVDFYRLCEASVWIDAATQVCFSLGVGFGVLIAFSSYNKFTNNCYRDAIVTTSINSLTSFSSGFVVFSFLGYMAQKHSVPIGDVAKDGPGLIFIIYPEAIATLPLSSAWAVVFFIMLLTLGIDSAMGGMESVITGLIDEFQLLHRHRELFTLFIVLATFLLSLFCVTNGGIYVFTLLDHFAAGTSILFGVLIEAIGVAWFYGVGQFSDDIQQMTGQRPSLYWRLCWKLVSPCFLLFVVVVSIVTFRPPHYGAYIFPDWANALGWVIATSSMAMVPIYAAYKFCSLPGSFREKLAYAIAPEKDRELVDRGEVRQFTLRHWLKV

Consider `C[C@@H]1CN(C(=N)N)N=C1c1ccc(F)cc1O` [AM1476], for which the half-maximal inhibitory concentration (IC50) on Mouse 5-HT2BR is 11.5 nM; against Uptake, Dopamine (hu), over 30000 nM; on 5-HT2CR [1], 3100 nM; on human 5-HT2BR [4] (inhibition of 5-HT (5 nM) induced IP1 response, CHO-K1, read-out: IC50, antagonistic activity, human 5-HT2B) it was 5.8 nM. Moreover, the “hydroxyproline content vs five-week-old Tsk-1 mice (pretreatment level)” value in the data set on Tsk-1 mice (10 mg/kg qd or 10 mg/kg bid) is “comparable”. The “hypodermal thickness vs five-week-old Tsk-1 mice (pretreatment level)” value in the data set with Tsk-1 mice (10 mg/kg qd or 10 mg/kg bid) was “comparable”. The hydroxyproline content result with Tsk-1 mice (setting [6]) is on record as “reduced”. For the same molecule, the hypodermal thickening entry in the data set on Tsk-1 mice (setting [6]) is given as “reduced”. Besides, the myofibroblast counts entry with Tsk-1 mice (setting [6]) is “reduced”. Besides, the Ki on human 5-HT2AR came out at 800 nM; on human 5-HT2BR [2], 6 nM; at 5-HT2CR [3], 60 nM. Also, the “agonistic activity at 5-HT2BR” value on human 5-HT2BR [4] was “devoid of agonistic activity; also recorded: no agonism”. Also, the “distribution to the brain” value in data set [5] is “no preference to distribute to the brain”. Further, in data set [5], the oral bioavailability entry is given as “orally bioavailable”.
